Values of other authors as cited in patent publication US11903955B2, “Methods of treating heart failure with reduced ejection fraction” (ASTRAZENECA AB, priority 2019, dated 2024).

How the values were obtained:
[1] = tested on: patients with HFrEF; details: after 8 months of treatment, PARADIGM-HF; cited from earlier work
[2] = tested on: patients with systolic heart failure; details: after 12 months of treatment, SHIFT; cited from earlier work

Row | Compound | improvement in KCCQ-CS over enalapril [1] [point] | improvement in KCCQ-OS over enalapril [1] [point] | mean improvement in KCCQ-CSS [2] [point] | mean improvement in KCCQ-OSS [2] [point]
1 | sacubitril-valsartan | 0.9 | 1.3 |  | 
2 | COc1cc2c(cc1OC)CC(=O)N(CCCN(C)C[C@H]1Cc3cc(OC)c(OC)cc31)CC2 [ivabradine] |  |  | 1.8 | 2.4
